Molecules are shown by their SMILES. pIC50, pKd, pKi: −log10 of the molar value.

The target in one series is GluN1/GluN2D receptors (Rattus norvegicus, UniProt P35439+Q62645). The experiment in a line: Whole-cell patch clamp recordings of GluN1/GluN2D receptors expressed in HEK293 cells. Format: cell-based. Background: In patch-clamp work, channel activity is measured electrically.
The next series is described as follows: Plasma stability, mouse. Format: in vitro ADME. The settings on record: two-hour time-course. The method, then: (§1) Three analogs, (58) 997-33, (26)997-23 and (64) 997-57 were evaluated for plasma stability as well as aqueous solubility. […] The aqueous solubility of compounds (26)997-23 and (58) 997-33 was evaluated in oocyte recording buffer using nephelometry. […] In order to assess the potential BBB penetration, compounds (26)997-23 and (64)997-57 were selected for evaluation in the MDR1-MDCK permeability assay (FIG. 19). […] The same compounds were also evaluated for metabolic stability using human liver microsomes.

Another series concerns the target T1, 5-HT1E (Homo sapiens, UniProt P28566).
T1 construct: NIMH PDSP (screening programme)
As to the kind of experiment: NIMH PDSP Ki determination, 5-HT1E. In kind it is binding. The method, then:
(§2) The actions of these two compounds at 5 μM on were tested 42 different ion channels, G-protein coupled receptors, and transporters via the National Institutes of Mental Health (NIMH) psychoactive drug screening program (PDSP).

The target in the next series is T2, mu-opioid (Homo sapiens, UniProt P35372).
T2 construct: NIMH PDSP (screening programme)
T2 sequence (P35372 whole entry): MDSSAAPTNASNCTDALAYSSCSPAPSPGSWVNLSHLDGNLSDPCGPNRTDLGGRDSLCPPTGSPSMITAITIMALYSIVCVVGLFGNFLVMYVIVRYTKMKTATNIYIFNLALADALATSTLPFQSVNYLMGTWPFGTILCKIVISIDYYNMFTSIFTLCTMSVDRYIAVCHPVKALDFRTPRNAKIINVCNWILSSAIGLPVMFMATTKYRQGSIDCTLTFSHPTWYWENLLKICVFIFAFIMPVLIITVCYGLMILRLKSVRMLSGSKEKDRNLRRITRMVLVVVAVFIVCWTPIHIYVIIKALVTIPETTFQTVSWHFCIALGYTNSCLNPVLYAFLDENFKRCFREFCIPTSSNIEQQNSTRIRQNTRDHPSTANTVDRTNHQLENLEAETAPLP
As to the kind of experiment: NIMH PDSP Ki determination, mu-opioid. Format: binding. The method, then:
as §2

A short description of a further series: Plasma stability, human. As to conditions: two-hour time-course. In kind it is in vitro ADME. The method, then: as §1
A further series in a line: Plasma stability, rat. Format: in vitro ADME. As to conditions: two-hour time-course. The method, then:
as §1

The target in the next series is T3, 5-HT6 (Homo sapiens, UniProt P50406).
T3 construct: NIMH PDSP (screening programme)
T3 sequence (P50406 whole entry, species assumed): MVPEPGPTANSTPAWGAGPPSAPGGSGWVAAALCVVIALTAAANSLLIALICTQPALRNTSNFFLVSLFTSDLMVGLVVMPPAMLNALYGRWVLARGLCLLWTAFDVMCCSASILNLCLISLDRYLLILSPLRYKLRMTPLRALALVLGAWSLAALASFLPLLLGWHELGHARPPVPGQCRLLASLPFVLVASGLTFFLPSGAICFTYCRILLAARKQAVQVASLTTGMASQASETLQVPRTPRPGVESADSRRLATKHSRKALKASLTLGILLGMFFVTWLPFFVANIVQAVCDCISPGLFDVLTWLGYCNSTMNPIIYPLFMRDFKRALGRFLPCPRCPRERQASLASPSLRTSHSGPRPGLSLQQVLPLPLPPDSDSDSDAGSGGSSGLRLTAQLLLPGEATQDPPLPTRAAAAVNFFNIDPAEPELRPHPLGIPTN
As to the kind of experiment: NIMH PDSP Ki determination, 5-HT6. Format: binding. The method, then:
as §2

Series [1] in a line: Aqueous solubility in oocyte recording buffer by nephelometry. Format: physicochemical. The protocol: as §1
Series [2] concerns 42 different ion channels, G-protein coupled receptors, and transporters. The experiment in a line: NIMH PDSP primary binding assay. As to conditions: 5 μM compound. The method, then:
as §2

The target in the next series is T4, kappa-opioid (Homo sapiens, UniProt P41145).
T4 construct: NIMH PDSP (screening programme)
T4 sequence (P41145 whole entry): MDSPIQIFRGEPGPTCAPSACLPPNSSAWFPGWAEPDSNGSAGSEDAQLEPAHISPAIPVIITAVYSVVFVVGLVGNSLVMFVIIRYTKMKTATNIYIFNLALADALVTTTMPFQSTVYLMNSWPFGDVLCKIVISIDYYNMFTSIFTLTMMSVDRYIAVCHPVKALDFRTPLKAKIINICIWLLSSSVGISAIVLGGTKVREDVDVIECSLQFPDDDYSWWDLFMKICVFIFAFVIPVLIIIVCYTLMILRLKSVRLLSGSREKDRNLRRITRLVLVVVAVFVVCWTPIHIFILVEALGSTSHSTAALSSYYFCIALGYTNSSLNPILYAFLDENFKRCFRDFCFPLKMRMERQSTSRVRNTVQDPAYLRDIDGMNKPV
The experiment in a line: NIMH PDSP Ki determination, kappa-opioid. In kind it is binding. The method, then: as §2

The next series deals with GluN1/GluN2D (Rattus norvegicus, UniProt Q62645). As to the kind of experiment: Inhibition of GluN1/GluN2D responses: dependence on agonist concentration and on voltage. Format: cell-based. The settings on record: 1 μM compound. An excerpt: Although it is not intended that embodiments of this disclosure be limited by any mechanism, Acker et al. report a mechanism for noncompetitive inhibition by GluN2C/D N-methyl-d-aspartate receptor subunit-selective modulators. Molecular Pharmacology 2011, 80, 782-795.
Chain of GluN1/GluN2D (Q62645 28-1323, other chains not shown): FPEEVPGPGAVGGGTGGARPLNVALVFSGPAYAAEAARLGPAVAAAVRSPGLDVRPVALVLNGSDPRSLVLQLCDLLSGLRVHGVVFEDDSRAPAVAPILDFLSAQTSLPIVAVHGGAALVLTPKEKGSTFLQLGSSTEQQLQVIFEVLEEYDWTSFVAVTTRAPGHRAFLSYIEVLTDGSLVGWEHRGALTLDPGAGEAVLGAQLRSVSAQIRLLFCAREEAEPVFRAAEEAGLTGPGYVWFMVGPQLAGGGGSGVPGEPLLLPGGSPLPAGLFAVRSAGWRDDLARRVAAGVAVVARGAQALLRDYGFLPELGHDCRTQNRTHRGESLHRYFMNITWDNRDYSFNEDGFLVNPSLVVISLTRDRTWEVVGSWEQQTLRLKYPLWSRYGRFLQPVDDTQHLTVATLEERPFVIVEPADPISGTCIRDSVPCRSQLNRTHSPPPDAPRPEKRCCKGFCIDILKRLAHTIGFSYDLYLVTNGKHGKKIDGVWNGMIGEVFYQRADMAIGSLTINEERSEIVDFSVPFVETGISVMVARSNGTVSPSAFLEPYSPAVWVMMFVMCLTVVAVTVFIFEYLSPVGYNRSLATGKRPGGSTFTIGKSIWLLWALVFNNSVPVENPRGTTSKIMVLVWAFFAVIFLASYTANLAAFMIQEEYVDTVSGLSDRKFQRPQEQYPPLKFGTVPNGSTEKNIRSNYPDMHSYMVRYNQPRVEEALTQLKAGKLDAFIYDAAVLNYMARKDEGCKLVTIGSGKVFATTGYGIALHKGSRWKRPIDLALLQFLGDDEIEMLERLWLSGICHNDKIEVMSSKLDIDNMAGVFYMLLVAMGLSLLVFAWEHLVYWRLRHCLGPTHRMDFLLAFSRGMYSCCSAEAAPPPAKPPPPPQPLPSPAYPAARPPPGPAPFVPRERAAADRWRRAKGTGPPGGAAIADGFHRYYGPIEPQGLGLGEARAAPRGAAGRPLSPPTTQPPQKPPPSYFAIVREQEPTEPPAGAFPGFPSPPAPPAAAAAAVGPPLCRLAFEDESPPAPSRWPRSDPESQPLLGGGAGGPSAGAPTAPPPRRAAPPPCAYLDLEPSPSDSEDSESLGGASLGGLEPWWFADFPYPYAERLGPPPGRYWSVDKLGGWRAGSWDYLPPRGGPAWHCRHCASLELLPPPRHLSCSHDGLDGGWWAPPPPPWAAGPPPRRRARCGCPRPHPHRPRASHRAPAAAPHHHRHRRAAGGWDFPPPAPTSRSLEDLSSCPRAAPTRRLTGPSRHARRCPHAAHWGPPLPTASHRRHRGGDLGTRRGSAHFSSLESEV

In series [3] the target is T5, GluN2D-containing receptors (Rattus norvegicus, UniProt Q62645).
T5 construct: expressed in transfected cells; host or cells: Xenopus laevis oocytes
T5 sequence (Q62645 28-1323, other chains not shown): as above
As to the kind of experiment: Two-electrode voltage-clamp inhibition of GluN2D-containing NMDA receptors in Xenopus laevis oocytes. In kind it is cell-based. The method, then:
(§3) IC50 values were obtained by fitting the Hill equation to the average composite concentration-effect curves.
(§4) Xenopus laevis oocytes were isolated and maintained as described in Hansen & Traynelis, J Neurosci 2011, 31, 3650-3661. Oocytes were placed in a perfusion chamber with recording solution comprised of (in mM) 90 NaCl, 1 KCl, 0.5 BaCl2, 0.005 EDTA and 10 HEPES, pH adjusted to 7.4 with NaOH at 23° C. The glass electrodes used had tip resistance of 0.5-2.0 MΩ and were filled with 0.3-3.0 M KCl. Compounds were made as 20 mM stock solutions in DMSO and diluted to final concentrations in recording solution (final DMSO was 0.1-0.05% vol/vol). The current recordings were performed using a Warner OC-725B or C amplifier at a holding potential of −40 mV.

Series [4] concerns the target T6, GluN2C-containing receptors (Rattus norvegicus, UniProt Q00961).
T6 construct: expressed in transfected cells; host or cells: Xenopus laevis oocytes
The experiment in a line: Two-electrode voltage-clamp inhibition of GluN2C-containing NMDA receptors in Xenopus laevis oocytes. In kind it is cell-based. The method, then: as §3, §4
In general terms: Two-electrode voltage clamp is typically applied to oocytes expressing channels or transporters.

The nature of series [5]: Human liver microsomal stability. The settings on record: 60 minute assay. Format: in vitro ADME. The protocol: Human liver microsomes were obtained from XenoTech. The reaction mixture was prepared with 0.5 mg/mL human liver microsomes, 100 mM potassium phosphate (pH 7.4), 5 mM magnesium chloride, 1 μM test compound. The reaction mixture was incubated in a shaking water bath at 37° C. for 3 minutes prior to the addition of NADPH (1 mM). Testosterone was run simultaneously in a separate vessel as a control. 100 μl aliquots were taken at 0, 10, 20, 30 and 60 minutes for both test compound and testosterone. The aliquots were combined immediately with 400 μl of ice cold 50/50 ACN/dH2O containing 0.1% formic acid and internal standard to terminate the reaction. The samples were then mixed and centrifuged to precipitate microsomal proteins. All samples were assayed by LC-MS/MS using electrospray ionization and multiple reaction monitoring and the peak area responses to internal standard of the compounds at each time point was compared to the peak area response at time 0 to determine the percent compound remaining. The human liver microsomal stability assays were performed by Absorption Systems.

The target of the next series is T7, H2 (Homo sapiens, UniProt P25021).
T7 construct: NIMH PDSP (screening programme)
T7 sequence (P25021 whole entry): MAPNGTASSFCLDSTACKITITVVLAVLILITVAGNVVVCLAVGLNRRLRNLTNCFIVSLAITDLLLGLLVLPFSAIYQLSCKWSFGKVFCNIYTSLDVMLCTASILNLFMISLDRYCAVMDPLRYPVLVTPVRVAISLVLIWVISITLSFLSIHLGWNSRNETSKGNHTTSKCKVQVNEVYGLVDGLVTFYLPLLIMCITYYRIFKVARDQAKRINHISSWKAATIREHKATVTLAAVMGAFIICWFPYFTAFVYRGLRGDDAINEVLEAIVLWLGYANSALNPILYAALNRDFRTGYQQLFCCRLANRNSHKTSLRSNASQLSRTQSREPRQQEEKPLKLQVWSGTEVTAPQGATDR
The experiment in a line: NIMH PDSP Ki determination, H2. Format: binding. The method, then: as §2

In series [6] the test system is GluN2D receptor mutants Q801Y, L705F and A752V. The experiment in a line: Inhibition of mutant GluN2D receptors (Q801Y, L705F and A752V). In kind it is cell-based. As to conditions: racemic mixture, A752V versus wild type. The protocol: Mutations to the wild type GluN2D receptor (Q801Y, L705F and A752V) were described to decrease sensitivity of the GluN2D receptor to blockade by either DQP-1105 and/or QNZ-46 in the membrane proximal region of the bilobed ligand binding domain encoded by the S2 region of the polypeptide chain were evaluated. See Acker et al. and Hansen & Traynelis, J Neurosci, 2011, 31, 3650-3661.

Series [7] deals with MDR1-MDCK cell monolayers. As to the kind of experiment: MDR1-MDCK permeability assay. In kind it is in vitro ADME. The settings on record: MDR1-MDCK, 5 μM, 120 minutes. The protocol:
The Papp and efflux ratio were calculated as described in the Methods. […] See Wang et al., International Journal of Pharmaceutics, 2005, 288, 349-359.
Cell monolayers were grown to confluence on collagen-coated, microporous, polycarbonate membranes in 12-well Costar Transwell® plates. The permeability assay buffer was Hanks Balanced Salt Solution containing 10 mM HEPES and 15 mM glucose at pH 7.4. The buffer in the receiver chamber also contained 1% bovine serum albumin. The dosing solution concentration in the assay buffer was 5 μM for each compound tested. The cell monolayers were dosed on the apical side (A-to-B) or basolateral side (B-to-A) and incubated at 37° C. with 5% CO2 in a humidified incubator. Samples were taken from the donor and receiver chambers at 120 minutes. Each determination was performed in duplicate. The co-dosed lucifer yellow flux was also measured for each monolayer to ensure no damage was inflicted to the cell monolayers during the flux period. All samples were assayed by LC-MS/MS using electrospray ionization. The apparent permeability (Papp) and percent recovery were calculated as follows. […] Human Liver Microsomal Stability

Chain of GluN1/GluN2D receptors (Q62645 28-1323, other chains not shown): as the sequence (Q62645 28-1323, other chains not shown) above
T1 sequence (P28566 whole entry, species assumed): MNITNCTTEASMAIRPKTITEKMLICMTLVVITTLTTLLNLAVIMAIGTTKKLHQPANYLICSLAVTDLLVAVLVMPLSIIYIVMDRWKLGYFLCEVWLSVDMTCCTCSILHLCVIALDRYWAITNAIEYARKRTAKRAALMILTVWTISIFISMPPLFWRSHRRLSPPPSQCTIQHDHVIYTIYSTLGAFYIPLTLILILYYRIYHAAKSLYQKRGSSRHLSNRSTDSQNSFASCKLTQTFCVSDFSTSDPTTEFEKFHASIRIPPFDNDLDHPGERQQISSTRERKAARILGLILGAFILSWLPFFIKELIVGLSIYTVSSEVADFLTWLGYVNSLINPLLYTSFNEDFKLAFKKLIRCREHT
T6 sequence (Q00961 20-1237, other chains not shown): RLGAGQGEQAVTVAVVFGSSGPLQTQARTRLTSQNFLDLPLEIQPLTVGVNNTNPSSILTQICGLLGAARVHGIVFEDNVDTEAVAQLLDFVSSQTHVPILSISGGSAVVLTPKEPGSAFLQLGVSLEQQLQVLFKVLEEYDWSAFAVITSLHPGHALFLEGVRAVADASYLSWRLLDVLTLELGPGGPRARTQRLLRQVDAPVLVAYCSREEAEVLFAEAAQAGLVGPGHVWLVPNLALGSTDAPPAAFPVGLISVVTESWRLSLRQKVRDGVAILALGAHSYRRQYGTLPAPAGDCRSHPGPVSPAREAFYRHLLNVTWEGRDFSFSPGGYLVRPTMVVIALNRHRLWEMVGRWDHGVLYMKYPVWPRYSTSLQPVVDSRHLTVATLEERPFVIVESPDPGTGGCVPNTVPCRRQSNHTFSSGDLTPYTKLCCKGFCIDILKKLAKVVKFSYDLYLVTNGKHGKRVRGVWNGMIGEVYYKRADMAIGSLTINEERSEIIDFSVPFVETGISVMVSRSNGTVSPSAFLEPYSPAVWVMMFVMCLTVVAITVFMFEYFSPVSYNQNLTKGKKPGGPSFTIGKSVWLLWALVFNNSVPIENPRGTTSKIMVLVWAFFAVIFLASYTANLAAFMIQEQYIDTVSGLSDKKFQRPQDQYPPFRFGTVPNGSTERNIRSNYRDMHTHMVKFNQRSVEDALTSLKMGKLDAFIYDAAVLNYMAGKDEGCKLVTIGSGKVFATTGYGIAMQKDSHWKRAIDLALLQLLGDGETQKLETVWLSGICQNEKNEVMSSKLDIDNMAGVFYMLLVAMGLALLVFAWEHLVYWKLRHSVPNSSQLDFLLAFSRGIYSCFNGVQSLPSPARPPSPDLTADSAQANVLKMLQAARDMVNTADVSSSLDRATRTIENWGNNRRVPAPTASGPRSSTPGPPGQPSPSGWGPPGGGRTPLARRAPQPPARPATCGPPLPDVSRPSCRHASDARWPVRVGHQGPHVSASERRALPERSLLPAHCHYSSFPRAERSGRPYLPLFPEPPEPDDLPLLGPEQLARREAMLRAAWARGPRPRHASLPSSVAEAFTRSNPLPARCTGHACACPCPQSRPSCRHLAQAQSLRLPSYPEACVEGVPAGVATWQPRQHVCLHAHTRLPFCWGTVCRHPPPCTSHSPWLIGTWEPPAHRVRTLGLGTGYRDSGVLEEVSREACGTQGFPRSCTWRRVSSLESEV
Protocol for GluN1/GluN2D receptors: The time course of recovery from inhibition could also be well described by a single exponential function, and the kOFF was determined by the y-intercept in the linear regression relationship between the reciprocal of the tau describing the onset of inhibition and the drug concentration.

Consider `O=C(O)/C=C/C(=O)N1N=C(c2c(-c3ccc(Br)cc3)c3ccccc3[nH]c2=O)CC1c1ccc(Cl)cc1` (racemic) [Compound 997-33, (E)-4-(3-(4-(4-Bromophenyl)-2-oxo-1,2-dihydroquinolin-3-yl)-5-(4-chlorophenyl)-4,5-dihydro-1H-pyrazol-1-yl)-4-oxobut-2-enoic acid], for which, on GluN1/GluN2D receptors (HEK293 cells, n=4, read-out: IC50 for inhibition of the response under whole-cell voltage clamp), the negative-log IC50 (pIC50) is 6.00. The pKd on GluN1/GluN2D receptors (calculated from kOFF and kON, read-out: dissociation constant KD) was 6.00. Moreover, the plasma stability entry in “Plasma stability, mouse” was “minimal degradation”; in “Plasma stability, human” it was “minimal degradation”; in “Plasma stability, rat” it was “minimal degradation”. Moreover, the pKi at 5-HT1E, on mu-opioid, on 5-HT6 and at kappa-opioid was less than 5.00 throughout. For the same compound, the solubility in series [1] is more than 80 µM. Further, in series [2], the “effect on receptors and transporters in primary binding assay” value is “minimal effect”. For the same compound, the GluN1/GluN2D response remaining was 4.1 ± 0.58 % of control on GluN1/GluN2D (30 μM glutamate and glycine, n=6); 3.1 ± 0.50 % of control on GluN1/GluN2D (3 mM glutamate and glycine, n=6); 4.8+1.2 % of control on GluN1/GluN2D (+30 mV, n=8); 4.9 ± 1.3 % of control at GluN1/GluN2D (−40 mV, n=8).

For `O=C(O)CCC(=O)N1N=C(c2c(-c3ccc(Br)cc3)c3ccccc3[nH]c2=O)CC1c1ccc(Br)cc1` (stereo not drawn) [Compound 997-7, 4-(5-(4-Bromophenyl)-3-(4-(4-bromophenyl)-2-oxo-1,2-dihydroquinolin-3-yl)-4,5-dihydro-1H-pyrazol-1-yl)-4-oxobutanoic acid], in series [3], the “selectivity for GluN2D-containing over GluN2A-containing receptors” value is given as 33 fold and the “selectivity for GluN2D-containing over GluN2B-containing receptors” value is recorded as 67 fold. Besides, the pIC50 in [3] (GluN2D-containing receptors, read-out: inhibition IC50 for GluN2D) was 6.41. The same compound gave a pIC50 in series [4] of 6.15.

For the compound `O=C(O)CCC(=O)N1N=C(c2c(-c3ccc(Cl)cc3)c3ccccc3[nH]c2=O)CC1c1ccc(Cl)cc1` (racemic) [Compound 997-23, 4-(5-(4-Chlorophenyl)-3-(4-(4-chlorophenyl)-2-oxo-1,2-dihydroquinolin-3-yl)-4,5-dihydro-1H-pyrazol-1-yl)-4-oxobutanoic acid], in series [5], the “degradation in human liver microsomes, in words” value is given as “minimal degradation”. The plasma stability result in “Plasma stability, mouse” was “minimal degradation”; in the series “Plasma stability, human”, “minimal degradation”; in the series “Plasma stability, rat”, “minimal degradation”. Moreover, the negative-log Ki (pKi) at 5-HT6, at H2 and at kappa-opioid was less than 5.00 in each case. Further, the solubility in [1] is more than 80 µM. In series [2], the “effect on receptors and transporters in primary binding assay” value is “minimal effect”. In addition, the “effect of GluN2D mutations on degree of inhibition” value in [6] was “significantly reduced the degree of inhibition”. Also, the “Papp A-B” value in [7] was determined as 4.7e-07 cm/s.

By pIC50 is commonly meant the negative decadic logarithm of the IC50, by convention in mol/L. For orientation: pKd means the negative decadic logarithm of the Kd, by convention in mol/L. For orientation: pKi means the negative decadic logarithm of the Ki, by convention in mol/L. A higher pKi goes with a low Ki. By solubility is commonly meant how much of the substance goes into solution per volume. Higher therefore signals much dissolved substance.
